Experimental data as given in patent publication US6362369B1, “Phthalic acid diamide derivatives fluorine-containing aniline compounds as starting material, agricultural and horticultural insecticides, and a method for application of the insecticides” (Nihon Nohyaku Co., Ltd., priority 1997, dated 2002).

Each molecule was assayed on diamondback moth (Plutella xylostella) (assay: Insecticidal effect on diamondback moth (Test Example 1)). Details: mortality judged according to the criterion shown in Test Example 1.
Format: in vivo
Description: Insecticidal effect on diamondback moth (Plutella xylostella) Adult diamondback moths were released and allowed to oviposit on a Chinese cabbage seedling. […] After air-drying, it was allowed to stand in a room thermostated at 25° C. Six days after the immersion, the hatched insects were counted. The mortality was calculated according to the following equation and the insecticidal effect was judged according to the criterion shown below. The test was carried out with triplicate groups of 10 insects. [table]

Row | Compound | Insecticidal effect on diamondback moth (Test Example 1), judged grade
1 | Cc1cc(Oc2ncc(C(F)(F)F)cc2Cl)ccc1NC(=O)c1c(I)cccc1C(=O)NC(C)C [compound 461] | A (100)
2 | Cc1cc(SC(C)C)ccc1NC(=O)c1c(I)cccc1C(=O)NC(C)C [compound 462] | A (100)
3 | Cc1cc(Sc2ccc(Cl)cc2)ccc1NC(=O)c1c(I)cccc1C(=O)NC(C)C [compound 463] | A (100)
4 | CC(C)NC(=O)c1cccc(I)c1C(=O)Nc1ccc(OC(F)F)cc1C(F)(F)F [compound 465] | A (100)
5 | CC(C)NC(=O)c1c(F)cccc1C(=O)Nc1ccc(SCC(F)(F)F)cc1 [compound 478] | A (100)
6 | CC(C)NC(=O)c1c(F)cccc1C(=O)Nc1cc(Cl)c(OC(F)F)c(Cl)c1 [compound 506] | A (100)
7 | Cc1cc(Oc2c(F)c(F)c(F)c(F)c2F)ccc1NC(=O)c1cccc(F)c1C(=O)NC(C)C [compound 520] | A (100)
8 | CC(C)NC(=O)c1cccc(F)c1C(=O)Nc1ccc(OC(F)(F)F)cc1 [compound 537] | A (100)
9 | CC(C)NC(=O)c1cccc(F)c1C(=O)Nc1ccc(SCC(F)(F)F)cc1 [compound 539] | A (100)
10 | CC(C)NC(=O)c1cccc(F)c1C(=O)Nc1ccc(SC(F)(F)C(F)F)cc1 [compound 540] | A (100)
11 | Cc1cc(OC(F)F)ccc1NC(=O)c1c(F)cccc1C(=O)NC(C)C [compound 559] | A (100)
12 | CC(C)NC(=O)c1cccc(F)c1C(=O)Nc1cc(Cl)c(OC(F)F)c(Cl)c1 [compound 560] | A (100)
13 | Cc1cc(Oc2c(F)c(F)c(F)c(F)c2F)ccc1NC(=O)c1c(F)cccc1C(=O)NC(C)C [compound 573] | A (100)
14 | CC(C)NC(=O)c1c(C(=O)Nc2cccc(Cl)c2)cccc1[N+](=O)[O-] [compound 587] | A (100)
15 | CC(C)NC(=O)c1c(C(=O)Nc2ccc(Cl)cc2)cccc1[N+](=O)[O-] [compound 588] | A (100)
16 | CC(C)NC(=O)c1c(C(=O)Nc2cccc(Br)c2)cccc1[N+](=O)[O-] [compound 590] | A (100)
17 | CC(C)NC(=O)c1c(C(=O)Nc2ccccc2F)cccc1[N+](=O)[O-] [compound 592] | A (100)
18 | CC(C)NC(=O)c1c(C(=O)Nc2cccc(F)c2)cccc1[N+](=O)[O-] [compound 593] | A (100)
19 | CC(C)NC(=O)c1c(C(=O)Nc2ccc(F)cc2)cccc1[N+](=O)[O-] [compound 594] | A (100)
20 | CC(C)NC(=O)c1c(C(=O)Nc2cccc(C#N)c2)cccc1[N+](=O)[O-] [compound 597] | B (99-90)
21 | CC(C)NC(=O)c1c(C(=O)Nc2ccc(C#N)cc2)cccc1[N+](=O)[O-] [compound 598] | A (100)

Row | Compound | Insecticidal effect on diamondback moth (Test Example 1), judged grade
22 | Cc1cccc(NC(=O)c2cccc([N+](=O)[O-])c2C(=O)NC(C)C)c1 [compound 600] | A (100)
23 | Cc1ccc(NC(=O)c2cccc([N+](=O)[O-])c2C(=O)NC(C)C)cc1 [compound 601] | A (100)
24 | CC(C)NC(=O)c1c(C(=O)Nc2ccccc2C(F)(F)F)cccc1[N+](=O)[O-] [compound 608] | A (100)
25 | COc1cccc(NC(=O)c2cccc([N+](=O)[O-])c2C(=O)NC(C)C)c1 [compound 613] | A (100)
26 | COc1ccc(NC(=O)c2cccc([N+](=O)[O-])c2C(=O)NC(C)C)cc1 [compound 614] | A (100)
27 | CC(C)NC(=O)c1c(C(=O)Nc2cccc(OC(C)C)c2)cccc1[N+](=O)[O-] [compound 615] | A (100)
28 | CSc1cccc(NC(=O)c2cccc([N+](=O)[O-])c2C(=O)NC(C)C)c1 [compound 621] | A (100)
29 | CSc1ccccc1NC(=O)c1cccc([N+](=O)[O-])c1C(=O)NC(C)C [compound 622] | A (100)
30 | CC(C)NC(=O)c1c(C(=O)Nc2ccc(SCC(F)(F)F)cc2)cccc1[N+](=O)[O-] [compound 624] | A (100)
31 | CC(C)NC(=O)c1c(C(=O)Nc2ccc(SC(F)(F)C(F)F)cc2)cccc1[N+](=O)[O-] [compound 626] | A (100)
32 | CC(C)NC(=O)c1c(C(=O)Nc2cc(Cl)cc(Cl)c2)cccc1[N+](=O)[O-] [compound 637] | A (100)
33 | CC(C)NC(=O)c1c(C(=O)Nc2cccc(F)c2F)cccc1[N+](=O)[O-] [compound 638] | B (99-90)
34 | CC(C)NC(=O)c1c(C(=O)Nc2ccc(F)cc2F)cccc1[N+](=O)[O-] [compound 639] | A (100)
35 | CC(C)NC(=O)c1c(C(=O)Nc2cc(F)ccc2F)cccc1[N+](=O)[O-] [compound 640] | A (100)
36 | CC(C)NC(=O)c1c(C(=O)Nc2ccc(F)c(F)c2)cccc1[N+](=O)[O-] [compound 642] | A (100)
37 | CC(C)NC(=O)c1c(C(=O)Nc2ccc(F)c(F)c2F)cccc1[N+](=O)[O-] [compound 645] | A (100)
38 | Cc1cccc(C)c1NC(=O)c1cccc([N+](=O)[O-])c1C(=O)NC(C)C [compound 650] | A (100)
39 | Cc1cc(C)c(NC(=O)c2cccc([N+](=O)[O-])c2C(=O)NC(C)C)c(C)c1 [compound 652] | A (100)
40 | CCc1cccc(CC)c1NC(=O)c1cccc([N+](=O)[O-])c1C(=O)NC(C)C [compound 653] | A (100)
41 | Cc1cc(NC(=O)c2cccc([N+](=O)[O-])c2C(=O)NC(C)C)c(F)cc1Cl [compound 657] | D (79-50)
42 | CC(C)NC(=O)c1c(C(=O)Nc2ccc(OC(F)F)c(Cl)c2)cccc1[N+](=O)[O-] [compound 658] | A (100)

Row | Compound | Insecticidal effect on diamondback moth (Test Example 1), judged grade
43 | CC(C)NC(=O)c1c(C(=O)Nc2cc(Cl)c(OC(F)F)c(Cl)c2)cccc1[N+](=O)[O-] [compound 659] | A (100)
44 | CC(C)NC(=O)c1c(C(=O)Nc2c(Cl)cc(C(F)(F)F)cc2Cl)cccc1[N+](=O)[O-] [compound 662] | A (100)
45 | Cc1cc(Cl)c(Cl)cc1NC(=O)c1cccc([N+](=O)[O-])c1C(=O)NC(C)C [compound 668] | A (100)
46 | Cc1ccc(Br)cc1NC(=O)c1cccc([N+](=O)[O-])c1C(=O)NC(C)C [compound 672] | A (100)
47 | CCc1ccc(F)cc1NC(=O)c1cccc([N+](=O)[O-])c1C(=O)NC(C)C [compound 677] | A (100)
48 | CC(C)NC(=O)c1c(C(=O)Nc2ccc(Cl)c(C(F)(F)F)c2)cccc1[N+](=O)[O-] [compound 678] | A (100)
49 | Cc1ccc([N+](=O)[O-])cc1NC(=O)c1cccc([N+](=O)[O-])c1C(=O)NC(C)C [compound 708] | D (79-50)
50 | CSc1ccc(NC(=O)c2cccc([N+](=O)[O-])c2C(=O)NC(C)C)c(C)c1C [compound 720] | A (100)
51 | Cc1cc(SC(C)C)ccc1NC(=O)c1cccc([N+](=O)[O-])c1C(=O)NC(C)C [compound 721] | A (100)
52 | CC(C)NC(=O)c1c(C(=O)Nc2ccc3c(c2)OCO3)cccc1[N+](=O)[O-] [compound 733] | A (100)
53 | CC(C)NC(=O)c1c(C(=O)Nc2ccc3c(c2)nc(C(F)(F)F)n3C)cccc1[N+](=O)[O-] [compound 737] | A (100)
54 | Cc1ccc(Cl)cc1NC(=O)c1cc([N+](=O)[O-])ccc1C(=O)NC(C)C [compound 738] | D (79-50)
55 | Cc1cc(C(F)(F)F)ccc1NC(=O)c1c(C(=O)NC(C)C)cccc1[N+](=O)[O-] [compound 742] | A (100)
56 | Cc1cc(OC(F)(F)C(F)C(F)(F)F)ccc1NC(=O)c1c(C(=O)NC(C)C)cccc1[N+](=O)[O-] (centres unmarked) [compound 743] | D (79-50)
57 | Cc1cc(Cl)ccc1NC(=O)c1cccc(C#N)c1C(=O)NC(C)C [compound 744] | C (89-80)
58 | Cc1cc(Cl)ccc1NC(=O)c1c(C#N)cccc1C(=O)NC(C)C [compound 745] | D (79-50)
59 | Cc1cccc(C(=O)Nc2ccc(OC(F)(F)F)cc2)c1C(=O)NC(C)C [compound 749] | A (100)
60 | Cc1ccc(Cl)cc1NC(=O)c1c(C(=O)NC(C)C)cccc1C(F)(F)F [compound 766] | A (100)
61 | Cc1cc(Cl)ccc1NC(=O)c1cccc([S+]([O-])C(C)C)c1C(=O)NC(C)C (centres unmarked) [compound 793] | A (100)
62 | Cc1cc(Cl)ccc1NC(=O)c1cccc(S(=O)(=O)C(C)C)c1C(=O)NC(C)C [compound 796] | A (100)
